Source: patent US8404710B2, “Phosphodiesterase 10A inhibitor” (Kyorin Pharmaceutical Co., Ltd., priority 2002, dated 2013)

Assays:
PDE10A = PDE10A (Homo sapiens, UniProt Q9Y233); details: human PDE10A gene product; cited from earlier work
PDE8A1 = molecular target: T1, PDE8A1 (Homo sapiens, UniProt O60658); assay: Inhibition of recombinant human PDE8A1 by ibudilast; assay type: biochemical; details: PDE 8A1, substrate cAMP 0.2 μM
T1 construct: cDNA of full length PDEs, specifically, PDE1A3, PDE2A3, PDE3A, PDE3B, PDE4A4, PDE4B2, PDE4C2, PDE4D3, PDE5A1, PDE5A2, PDE5A3, PDE7A2, PDE8A1; made in house; host or cells: Sf9 insect cells (baculovirus)
T1 sequence (O60658 whole entry): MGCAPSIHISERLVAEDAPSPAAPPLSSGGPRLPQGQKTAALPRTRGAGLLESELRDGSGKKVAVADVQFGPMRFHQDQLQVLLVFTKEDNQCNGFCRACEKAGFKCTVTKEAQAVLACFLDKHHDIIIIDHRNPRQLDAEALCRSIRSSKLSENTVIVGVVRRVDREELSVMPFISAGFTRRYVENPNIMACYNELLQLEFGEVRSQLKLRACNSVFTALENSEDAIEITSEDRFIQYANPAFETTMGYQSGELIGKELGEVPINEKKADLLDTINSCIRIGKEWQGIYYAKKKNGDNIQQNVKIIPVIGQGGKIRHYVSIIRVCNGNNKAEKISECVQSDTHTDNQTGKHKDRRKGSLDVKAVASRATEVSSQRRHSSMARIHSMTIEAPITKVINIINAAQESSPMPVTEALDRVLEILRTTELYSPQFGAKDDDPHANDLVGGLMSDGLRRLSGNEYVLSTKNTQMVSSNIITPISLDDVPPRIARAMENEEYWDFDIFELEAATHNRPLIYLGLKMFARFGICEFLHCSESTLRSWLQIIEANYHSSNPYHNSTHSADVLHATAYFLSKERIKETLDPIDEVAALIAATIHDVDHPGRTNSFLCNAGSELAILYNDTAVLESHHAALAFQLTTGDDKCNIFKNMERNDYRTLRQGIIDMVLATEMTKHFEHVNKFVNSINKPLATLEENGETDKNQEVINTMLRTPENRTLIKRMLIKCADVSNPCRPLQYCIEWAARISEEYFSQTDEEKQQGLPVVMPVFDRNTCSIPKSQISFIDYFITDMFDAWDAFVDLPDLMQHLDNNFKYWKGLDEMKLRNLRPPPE

PDE10A1 = molecular target: T2, PDE10A1 (Homo sapiens, UniProt Q9Y233); assay: Inhibition of recombinant human PDE10A1 by ibudilast; assay type: biochemical
T2 construct: cDNA of full length PDEs, specifically, PDE1A3, PDE2A3, PDE3A, PDE3B, PDE4A4, PDE4B2, PDE4C2, PDE4D3, PDE5A1, PDE5A2, PDE5A3, PDE7A2, PDE8A1, PDE9A2, PDE10A1; made in house; host or cells: Sf9 insect cells (baculovirus)
T2 sequence (Q9Y233 1-779 isoform Q9Y233-1): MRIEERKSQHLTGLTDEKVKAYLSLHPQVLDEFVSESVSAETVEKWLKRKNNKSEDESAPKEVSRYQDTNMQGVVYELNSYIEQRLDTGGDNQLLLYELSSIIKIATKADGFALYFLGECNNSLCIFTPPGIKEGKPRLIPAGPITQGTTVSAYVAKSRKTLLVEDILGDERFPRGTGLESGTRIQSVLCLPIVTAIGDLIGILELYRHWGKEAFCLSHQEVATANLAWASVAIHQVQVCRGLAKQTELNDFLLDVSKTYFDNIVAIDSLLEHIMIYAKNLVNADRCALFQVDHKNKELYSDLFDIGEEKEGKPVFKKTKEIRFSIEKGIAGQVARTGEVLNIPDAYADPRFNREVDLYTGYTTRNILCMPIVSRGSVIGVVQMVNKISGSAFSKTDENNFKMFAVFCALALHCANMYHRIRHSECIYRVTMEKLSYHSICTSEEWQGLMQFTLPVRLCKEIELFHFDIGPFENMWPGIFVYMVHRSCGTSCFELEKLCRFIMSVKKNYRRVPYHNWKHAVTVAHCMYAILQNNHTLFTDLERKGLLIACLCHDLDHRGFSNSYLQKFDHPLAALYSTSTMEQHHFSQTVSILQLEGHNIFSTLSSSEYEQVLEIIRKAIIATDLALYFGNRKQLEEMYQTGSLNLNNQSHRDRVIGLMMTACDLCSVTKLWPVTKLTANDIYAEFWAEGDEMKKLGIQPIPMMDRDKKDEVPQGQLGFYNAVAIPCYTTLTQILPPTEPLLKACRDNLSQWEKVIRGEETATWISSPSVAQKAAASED

PDE2A3 = molecular target: T3, PDE2A3 (Homo sapiens, UniProt O00408); assay: Inhibition of recombinant human PDE2A3 by ibudilast; assay type: biochemical; details: PDE 2A3, substrate cAMP 2 μM
T3 construct: cDNA of full length PDEs, specifically, PDE1A3, PDE2A3; made in house; host or cells: Sf9 insect cells (baculovirus)

PDE4C2 = molecular target: T4, PDE4C2 (Homo sapiens, UniProt Q08493); assay: Inhibition of recombinant human PDE4C2 by ibudilast; assay type: biochemical; details: PDE 4C2, substrate cAMP 2 μM
T4 construct: cDNA of full length PDEs, specifically, PDE1A3, PDE2A3, PDE3A, PDE3B, PDE4A4, PDE4B2, PDE4C2; made in house; host or cells: Sf9 insect cells (baculovirus)

PDE4A4 = PDE4A4 (Homo sapiens, UniProt P27815); assay: Inhibition of recombinant human PDE4A4 by ibudilast; assay type: biochemical; details: PDE 4A4, substrate cAMP 2 μM
PDE1A3 = molecular target: T5, PDE1A3 (Homo sapiens, UniProt P54750); assay: Inhibition of recombinant human PDE1A3 by ibudilast; assay type: biochemical
T5 construct: cDNA of full length PDEs, specifically, PDE1A3; made in house; host or cells: Sf9 insect cells (baculovirus)
T5 sequence (P54750 whole entry): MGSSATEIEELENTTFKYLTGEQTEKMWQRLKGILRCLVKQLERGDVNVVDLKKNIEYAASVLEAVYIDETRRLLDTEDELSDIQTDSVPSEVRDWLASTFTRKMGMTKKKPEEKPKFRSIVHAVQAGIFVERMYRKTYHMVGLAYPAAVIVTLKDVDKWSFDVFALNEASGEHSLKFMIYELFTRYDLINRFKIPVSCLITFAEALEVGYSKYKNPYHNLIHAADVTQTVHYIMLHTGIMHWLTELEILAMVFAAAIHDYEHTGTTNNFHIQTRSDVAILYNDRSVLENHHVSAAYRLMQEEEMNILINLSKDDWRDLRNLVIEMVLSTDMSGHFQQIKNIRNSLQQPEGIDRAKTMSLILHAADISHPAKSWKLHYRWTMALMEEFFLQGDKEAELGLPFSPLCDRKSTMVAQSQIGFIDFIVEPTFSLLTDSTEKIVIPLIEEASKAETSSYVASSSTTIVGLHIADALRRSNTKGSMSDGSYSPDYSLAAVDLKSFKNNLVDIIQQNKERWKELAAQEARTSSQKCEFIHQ

PDE3B = molecular target: T6, PDE3B (Homo sapiens, UniProt Q13370); assay: Inhibition of recombinant human PDE3B by ibudilast (Sf9 cell suspension); assay type: biochemical; details: PDE 3B, substrate cAMP 2 μM
T6 construct: cDNA of full length PDEs, specifically, PDE1A3, PDE2A3, PDE3A, PDE3B; made in house; host or cells: Sf9 insect cells (baculovirus); unpurified cell suspension in RIPA buffer
T6 sequence (Q13370 whole entry): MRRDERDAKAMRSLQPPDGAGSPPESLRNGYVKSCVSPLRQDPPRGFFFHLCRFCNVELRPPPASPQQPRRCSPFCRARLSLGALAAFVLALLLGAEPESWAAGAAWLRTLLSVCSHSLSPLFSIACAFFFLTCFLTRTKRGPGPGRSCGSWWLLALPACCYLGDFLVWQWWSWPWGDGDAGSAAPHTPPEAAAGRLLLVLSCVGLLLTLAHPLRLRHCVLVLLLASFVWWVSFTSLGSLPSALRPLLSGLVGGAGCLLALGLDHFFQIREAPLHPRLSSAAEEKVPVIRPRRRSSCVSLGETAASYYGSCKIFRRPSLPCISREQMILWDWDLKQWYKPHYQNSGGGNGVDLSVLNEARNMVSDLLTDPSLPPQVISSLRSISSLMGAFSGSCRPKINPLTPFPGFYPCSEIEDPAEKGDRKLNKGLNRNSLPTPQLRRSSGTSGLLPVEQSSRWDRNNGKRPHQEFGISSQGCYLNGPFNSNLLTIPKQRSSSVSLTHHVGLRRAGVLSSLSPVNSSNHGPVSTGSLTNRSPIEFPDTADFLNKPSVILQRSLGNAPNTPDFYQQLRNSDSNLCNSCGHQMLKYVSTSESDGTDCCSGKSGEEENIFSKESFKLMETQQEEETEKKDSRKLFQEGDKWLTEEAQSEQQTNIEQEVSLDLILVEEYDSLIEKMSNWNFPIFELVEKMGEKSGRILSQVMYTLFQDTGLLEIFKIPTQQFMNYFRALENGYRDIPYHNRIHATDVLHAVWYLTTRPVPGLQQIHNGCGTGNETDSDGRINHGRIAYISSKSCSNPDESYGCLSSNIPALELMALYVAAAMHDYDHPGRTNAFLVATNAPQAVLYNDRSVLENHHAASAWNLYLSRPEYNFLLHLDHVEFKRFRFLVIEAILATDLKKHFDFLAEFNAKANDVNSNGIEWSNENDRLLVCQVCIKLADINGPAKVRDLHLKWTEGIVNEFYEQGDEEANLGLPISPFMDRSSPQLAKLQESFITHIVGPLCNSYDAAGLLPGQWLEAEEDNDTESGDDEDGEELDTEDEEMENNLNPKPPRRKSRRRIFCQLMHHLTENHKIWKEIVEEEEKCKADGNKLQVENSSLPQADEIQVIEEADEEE

PDE9A2 = molecular target: T7, PDE9A2 (Homo sapiens, UniProt O76083); assay: Inhibition of recombinant human PDE9A2 by ibudilast; assay type: biochemical; details: PDE 9A2, substrate cGMP 0.2 μM
T7 construct: cDNA of full length PDEs, specifically, PDE1A3, PDE2A3, PDE3A, PDE3B, PDE4A4, PDE4B2, PDE4C2, PDE4D3, PDE5A1, PDE5A2, PDE5A3, PDE7A2, PDE8A1, PDE9A2; made in house; host or cells: Sf9 insect cells (baculovirus)

PDE11A1 = molecular target: T8, PDE11A1 (Homo sapiens, UniProt Q9HCR9); assay: Inhibition of recombinant human PDE11A1 by ibudilast; assay type: biochemical
T8 construct: cDNA of full length PDEs, specifically, PDE1A3, PDE2A3, PDE3A, PDE3B, PDE4A4, PDE4B2, PDE4C2, PDE4D3, PDE5A1, PDE5A2, PDE5A3, PDE7A2, PDE8A1, PDE9A2, PDE10A1, and PDE11A1; made in house; host or cells: Sf9 insect cells (baculovirus)
T8 sequence (Q9HCR9 445-933): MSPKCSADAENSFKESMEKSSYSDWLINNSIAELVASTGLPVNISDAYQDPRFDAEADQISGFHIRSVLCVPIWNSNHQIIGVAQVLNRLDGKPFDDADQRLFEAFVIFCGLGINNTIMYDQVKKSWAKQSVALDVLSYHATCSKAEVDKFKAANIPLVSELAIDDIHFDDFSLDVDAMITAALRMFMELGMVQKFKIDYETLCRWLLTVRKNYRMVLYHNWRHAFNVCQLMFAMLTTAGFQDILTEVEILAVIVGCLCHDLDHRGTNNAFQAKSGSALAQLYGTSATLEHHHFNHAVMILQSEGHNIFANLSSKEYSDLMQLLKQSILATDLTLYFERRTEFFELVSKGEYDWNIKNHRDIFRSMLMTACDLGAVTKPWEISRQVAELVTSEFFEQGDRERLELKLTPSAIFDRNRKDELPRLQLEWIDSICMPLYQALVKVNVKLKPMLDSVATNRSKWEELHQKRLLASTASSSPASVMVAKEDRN

PDE7A2 = molecular target: T9, PDE7A2 (Homo sapiens, UniProt Q13946); assay: Inhibition of recombinant human PDE7A2 by ibudilast; assay type: biochemical; details: PDE 7A2, substrate cAMP 0.2 μM
T9 construct: cDNA of full length PDEs, specifically, PDE1A3, PDE2A3, PDE3A, PDE3B, PDE4A4, PDE4B2, PDE4C2, PDE4D3, PDE5A1, PDE5A2, PDE5A3, PDE7A2; made in house; host or cells: Sf9 insect cells (baculovirus)

PDE4D3 = molecular target: T10, PDE4D3 (Homo sapiens, UniProt Q08499); assay: Inhibition of recombinant human PDE4D3 by ibudilast; assay type: biochemical; details: PDE 4D3, substrate cAMP 2 μM
T10 construct: cDNA of full length PDEs, specifically, PDE1A3, PDE2A3, PDE3A, PDE3B, PDE4A4, PDE4B2, PDE4C2, PDE4D3; made in house; host or cells: Sf9 insect cells (baculovirus)

Sequence of PDE10A (Q9Y233 whole entry): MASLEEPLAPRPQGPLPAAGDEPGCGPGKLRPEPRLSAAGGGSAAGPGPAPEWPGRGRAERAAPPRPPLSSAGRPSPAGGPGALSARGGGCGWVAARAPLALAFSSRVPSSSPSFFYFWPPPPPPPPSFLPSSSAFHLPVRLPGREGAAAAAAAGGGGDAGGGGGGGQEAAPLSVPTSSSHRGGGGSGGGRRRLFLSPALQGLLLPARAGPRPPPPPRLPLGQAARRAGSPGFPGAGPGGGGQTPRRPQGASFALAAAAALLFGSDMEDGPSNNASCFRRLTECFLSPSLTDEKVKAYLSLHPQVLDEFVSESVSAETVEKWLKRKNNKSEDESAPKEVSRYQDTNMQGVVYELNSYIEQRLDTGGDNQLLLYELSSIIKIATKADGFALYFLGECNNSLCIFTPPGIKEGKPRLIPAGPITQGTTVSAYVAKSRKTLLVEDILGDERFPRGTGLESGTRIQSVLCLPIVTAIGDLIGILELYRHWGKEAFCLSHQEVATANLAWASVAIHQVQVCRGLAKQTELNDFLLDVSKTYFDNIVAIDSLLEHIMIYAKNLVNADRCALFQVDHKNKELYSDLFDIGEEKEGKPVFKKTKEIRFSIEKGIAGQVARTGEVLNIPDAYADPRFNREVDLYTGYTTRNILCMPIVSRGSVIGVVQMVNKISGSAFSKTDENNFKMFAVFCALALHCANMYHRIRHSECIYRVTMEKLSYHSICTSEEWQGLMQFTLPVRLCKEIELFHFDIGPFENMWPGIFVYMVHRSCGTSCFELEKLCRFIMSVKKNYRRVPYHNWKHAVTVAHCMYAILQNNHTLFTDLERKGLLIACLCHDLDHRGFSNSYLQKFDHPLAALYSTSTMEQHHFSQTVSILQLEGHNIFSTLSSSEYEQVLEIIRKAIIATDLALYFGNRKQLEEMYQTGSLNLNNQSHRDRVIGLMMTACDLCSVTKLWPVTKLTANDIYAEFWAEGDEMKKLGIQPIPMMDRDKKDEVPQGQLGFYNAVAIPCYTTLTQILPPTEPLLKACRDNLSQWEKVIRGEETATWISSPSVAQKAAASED

Row | IC50 (PDE8A1) | IC50 (PDE10A1; PDE 10A1, substrate cAMP 0.2 μM) | IC50 (PDE10A1; PDE 10A1, substrate cGMP 2 μM) | inhibition of PDE10A1 compared with other PDEs (PDE10A1; in vitro, recombinant human PDE) | IC50 (PDE2A3) | IC50 (PDE4C2) | IC50 (PDE4A4) | IC50 (PDE1A3; PDE 1A3, substrate cAMP 2 μM) | IC50 (PDE1A3; PDE 1A3, substrate cGMP 2 μM) | IC50 (PDE3B) | IC50 (PDE9A2) | IC50 (PDE11A1; PDE 11A1, substrate cAMP 2 μM) | IC50 (PDE11A1; PDE 11A1, substrate cGMP 0.2 μM) | IC50 (PDE7A2) | IC50 (PDE4D3) | Structure (SMILES) | inhibition of PDE10A (PDE10A)
1 | – | – | – | – | – | – | – | – | – | – | – | – | – | – | – | OCCN(CCO)c1nc(N2CCCCC2)c2nc(N(CCO)CCO)nc(N3CCCCC3)c2n1 [dipyridamole] | inhibited
2 | 49 µM | 3 µM | 1 µM | particularly strong inhibition | 78 µM | 11 µM | 6 µM | 40 µM | 121 µM | 266 µM | > 400 µM | 17 µM | 36 µM | 115 µM | 6 µM | CC(C)C(=O)c1c(C(C)C)nn2ccccc12 [ibudilast, 3-isobutyryl-2-isopropyl pyrazolo[1,5-a]pyridine] | –
